In US9718790B2, “Triazine derivative and pharmaceutical composition having an analgesic activity comprising the same” (SHIONOGI & CO., LTD., priority 2010, dated 2017):

Legend:
[1] = system: partial sciatic nerve ligation model in rats; assay: Analgesic effect in a Seltzer model, Evaluation (2): mechanical hyperalgesia, analgesy meter paw pressure test; format: in vivo; conditions: rat, oral administration, 10 mg/kg, at 3 hours
Source text: Rats were anaesthetized using isoflurane/O2 inhalation anaesthesia. After induction of anesthesia, the left thigh was shaved. An incision was made in the skin just below the hip bone. The muscle was bluntly dissected to expose the sciatic nerve. One third (⅓) to one half (½) of the sciatic nerve thickness was tightly ligated and the wound was closed. The right thigh is used as a sham-operated control. The right thigh undergoes an identical procedure with the left hind limb, however, the sciatic nerve is not manipulated or ligated.
Mechanical hyperalgesia was eavaluated using an analgesy meter. Two weeks after nerve ligation, the paw pressure test was performed using an analgesy meter (stimulus pressure increased 16 g per second) to obtain paw withdrawal thresholds (PWT). Measurements were made on both sides of the hind paw and to obtain pre-dose PWT. The rats showing the threshold change from 60 to 90 g (in nerve ligated side) and 100 to 175 g (in sham operated side) were used in the experiments. On the day before the experiment, the rats have their hind paws set on the apparatus to familiarize them with the test procedure. […] Post-dose PWT of the right and left hind paws were measured at approximately 1 to 5 hours after drug administration. Percent reversal of mechanical hyperalgesia for each rat was calculated using the following formula. […]

[2] = system: rat model of cystitis; assay: Evaluation of the urinary function in a rat model of cystitis (acetic acid infusion, cystometry); format: in vivo; conditions: oral administration of 30 mg/kg
Source text: A rat was fixed in the supine position after being given anesthesia through the inhalation of 2% isoflurane (Anesthetic background: Nitrous oxide: Oxygen=7:3). A midline incision was made in its abdomen to expose the bladder. A cannula (made by) processing a polyethylene tube (PE-50: Becton Dickinson)) was inserted through a small incision on top of the bladder and fixed to create a bladder fistula. The other end of the cannula was led through the hypodermal tissue to the back, and the muscular coat and skin were sutured. The cannula, which was led to the back, was protected with a stainless spring in the middle and connected to the cannula swivel. […]
Three days after the acetic acid infusion, the other end of the cannula inserted into the bladder was connected to a T shape stopcock and then the intravesical pressure was recorded continuously using a pressure amplifier while infusing warmed normal saline solution at a rate of 3.0 mL/hr from one side and through a pressure transducer on the other side. The baseline of the intravesical pressure was measured (for approximately 40 minutes) after a measurement for stable duration (for approximately 20 minutes). After that, a vehicle, positive control compound or test compound wore administered, and the value after administration was measured for approximately 120 minutes. […]

SMILES: CC(C)Oc1ccc(Nc2nc(=O)n(CC(C)(C)C(=O)O)c(=O)n2Cc2ccc(Cl)cc2)cc1F [Compound I-0364]
- analgesic effect, percent reversal of mechanical hyperalgesia [1]: 56.7 % reversal
- improvements in the urinary function in the voided volume per urination [2]: 88%
- improvements in the urinary function in the voiding interval [2]: 74.8%
